Key:
Format in all cases: cell-based
[1] = system: EPO/JAK2/STAT5a (UT-7); assay: Intracellular activity assay, EPO induced STAT5 phosphorylation in UT-7/EPO; conditions: Homo sapiens, inhibition of STAT5 phosphorylation, EPO 10 ng/mL
Description: (§1) In this experiment, western blot (WB) and flow cytometry are used to evaluate the intracellular activities of the test compounds by comparing the relative levels of the signals of phosphorylated and non-phosphorylated STATs in 5 cell models, including U937, THP-1, CTLL-2, UT-7/EPO and activated human periphery blood cell (hPBC). The primary antibody and secondary antibody used in WB hybridization in this experiment are purchased from Cell Signaling Company (http://www.cellsignal.com). The fluorescence-labeled antibodies used in flow cytometry are purchased from eBiosciences Company (http://www.ebioscience.com).
UT-7/EPO is a cell line formed from the marrow of a patient suffering from […] after cultured with EPO induction, and it has obvious response to cytokine EPO. The signal for EPO is transmitted via the homodimer of JAK2 and induces the phosphorylation of downstream STAT5, while a JAK inhibitor suppresses the phosphorylation of STAT5 by suppressing the activity of JAK2. The intracellular inhibitory activity of the compounds on JAK2 can be evaluated by detecting the change of the phosphorylation level of STAT5.
(§2) (1) Treatment by the compound: the experiment is carried out in a 6-well plate. […]
(§3) (2) Cell fixation and fluorescence labeling: the cells are fixed using paraformaldehyde (30 min), and subsequently treated for membrane permeability in chilled methanol (15 min). […]
(§4) (3) Detection by flow cytometry: the detection is carried out using Guava® easyCyte flow cytometer according to the instruction. The median fluorescent intensity (MFI) of a sample is detected using an appropriate cell population. On such a basis, the relative signal intensities are calculated for the phosphorylated STATs treated by the compounds at different concentrations by reference to the signal of the negative (with no factor stimulation) and the positive control (with both factor stimulation and solvent control) in the experiment, so that the IC50 of the compound for the inhibitory activity on STATs phosphorylation can be evaluated.

[2] = system: IL-2/JAK1 & 3/STAT5 (hPBC); assay: Intracellular activity assay, IL-2 induced STAT5 phosphorylation in hPBC; conditions: Homo sapiens; inhibition of STAT5 phosphorylation, activated hPBC, IL-2 10 ng/mL
Description: as §1
Cytokine IL-2 dependent proliferation is formed after activation by co-stimulation of human periphery blood cell (hPBC) with CD3 antibody. The growth signal pathway is mediated by the heterodimer of JAK1/3 and induces the phosphorylation of downstream STAT5. The intracellular inhibitory activity of the compounds on JAK1/3 can be evaluated by detecting the change of the phosphorylation level of STAT5.
as §2, §3, §4

[3] = system: HUVEC cells; assay: Cell growth activity assay (MTS), HUVEC cell model; conditions: Homo sapiens, 72 h; for activity at 10 µM: read-out: HUVEC % growth rate @10 μM
Description: MTS assay is a routine method for cell toxicity detection. The basic principle is based on the capacity of dehydrogenase in the mitochondria of living cells to reduce a novel yellow […] MTS to formazan, so that the amount of living cells is proportional to the amount of formazan product by detecting the absorbance at 490 nm (OD), thereby speculating the amount of living cells according to the OD value, and understanding the capacity of the test compound to inhibit the growth of cells or to kill the cells.
HeLa cell is a human cervical cancer cell line, and belongs to epithelial tumor cell line; HUVEC is a human umbilical vein endothelial cell, and belongs to primary endothelial cell; both types of cells express all subtypes except for JAK3.
The change of JAK kinase activity has no significant influence on other cell types except for the immune cells, and both cell models mentioned above are mainly used to evaluate whether there are any other kinase targets besides JAK kinases or there are nonselective cell toxicities.
In this experiment, a cultured cell model is incubated with the test compounds at different concentrations for a specific duration. The effect of the treatment by the test compound on the growth of cells is detected using MTS assay.
MTS is performed according to routine procedure in a 96-well plate.
The model cells are inoculated into each well of the 96-well plate at an appropriate concentration (about 5000 cells/well). After 24 h, the test compounds are added at different concentration gradients (the highest final concentration is 40 μM). A solvent control (DMSO) and a negative control are also performed at the same time. Each experiment is repeated for 3 times. The cells are detected after cultured for another 72 h.
After all culture medium is aspirated out of the well, 100 μL fresh medium and 20 μL pre-formulated mixture of MTS and PMS (in a ratio of 20:1) are added to each well. After incubation at 37° C. for 2 h, it is then detected by a microplate reader (490 nm).
The cell growth inhibitory rate and GI50 of the test compound are calculated as above.
Based on the above method, cytological evaluation is performed to the compounds described herein (for the detection of CTLL-2 cell, the concentration of the test compound is 300 nM; […]).

Compound	IC50 [1] [nM]	IC50 [2] [nM]	activity at 10 µM [3] [%]	GI50 [3] [nM]
C=CC(=O)N(C)c1cc(Nc2ncc(Cl)c(NCCCNC(=O)c3ccc(C#N)cc3)n2)ccc1F [Example 7, N-(3-(5-chloro-2-(4-fluoro-3-(N-methylacrylamido)phenylamino)pyrimidinyl-4-amino)propyl)-4-cyano-benzamide]	> 3000	160	94	> 40000
C=CC(=O)N(C)c1cc(Nc2ncc(Cl)c(NCCCNC(=O)c3ccc(C(F)(F)F)cc3)n2)ccc1F [Example 22, N-(3-(5-chloro-2-(4-fluoro-3-(N-methylacrylamido)phenylamino)pyrimidinyl-4-amino)propyl)-4-trifluoromethylbenzamide]	> 3000	200	116	> 40000
C=CC(=O)N(C)c1cc(Nc2ncc(Cl)c(NCCCNC(=O)c3ccc(F)cc3)n2)ccc1F [Example 23, N-(3-(5-chloro-2-(4-fluoro-3-(N-methylacrylamido)phenylamino)pyrimidinyl-4-amino)propyl)-4-fluorobenzamide]	> 3000	240	112	> 40000

— patent US10011571B2, “Preparation method for aromatic heterocyclic compound used as selective JAK3 and/or JAK1 kinase inhibitor and application of aromatic heterocyclic compound” (SHENZHEN CHIPSCREEN BIOSCIENCES, LTD., priority 2014, dated 2018)
